IC50 data for 27 compounds are collected here from US11590139B2, “Substituted aminopurine compounds, compositions thereof, and methods of treatment therewith” (Signal Pharmaceuticals, LLC, priority 2014, dated 2023).

A value given as a limit tells only on which side of the number the result lay.

The first test concerns Lox-IMVI melanoma cell line. The test is described as follows: Lox-IMVI anti-proliferative assay (growth inhibition, Cell Titer-Glo). Type of test: cell-based, human. The following applies: Homo sapiens; IC50 activity level in the cell-based Lox-IMVI anti-proliferative assay; read-out: Activity. The gist of the method: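 Viability read by ATP luminescence (Cell Titer-Glo) at t0 and after 72 h at 37 °C, 5% CO2, with normalisation to DMSO-treated cells. Compound tested at 0.5 nM–10 μM in 3-fold, 10-point series (0.2% DMSO final) on Lox-IMVI in RPMI+10% FBS; IC50 by 4-parameter sigmoidal fit.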
Background: Cellular ATP, detected with luciferase, serves as a proxy for viable cell number.
Consider `N#Cc1cc(F)c(Nc2nc3cnc(NC4CCOCC4)nc3n2[C@H]2CC[C@@H](C(N)=O)CC2)c(Cl)c1` [Example 308, (1s,4s)-4-(8-(2-chloro-4-cyano-6-fluorophenylamino)-2-(tetrahydro-2H-pyran-4-ylamino)-9H-purin-9-yl)cyclohexanecarboxamide], for which the IC50 is below 250 nM.
Still for that read-out and setting: under `NC(=O)[C@H]1CC[C@@H](n2c(Nc3c(F)cc(Cl)cc3Cl)nc3cnc(NC4CCS(=O)(=O)CC4)nc32)CC1` [Example 157, (1s,4s)-4-(8-((2,4-dichloro-6-fluorophenyl)amino)-2-((1,1-dioxidotetrahydro-2H-thiopyran-4-yl)amino)-9H-purin-9-yl)cyclohexane-1-carboxamide] stands above 1000 nM; under `NC(=O)[C@H]1CC[C@@H](n2c(Nc3c(F)cc(Cl)cc3Cl)nc3cnc(N[C@H]4CCC[C@@H](O)C4)nc32)CC1` [Example 376, (1R,4s)-4-(8-(2,4-dichloro-6-fluorophenylamino)-2-((1S,3R)-3-hydroxycyclohexylamino)-9H-purin-9-yl)cyclohexanecarboxamide], above 1000 nM.
Same read-out and setting: as for `NC(=O)[C@H]1CC[C@@H](n2c(Nc3c(F)cccc3F)nc3cnc(N[C@@H]4CC[C@@H](O)C4)nc32)CC1` [Example 209, (1S,4s)-4-(8-(2,6-difluorophenylamino)-2-((1R,3R)-3-hydroxycyclopentylamino)-9H-purin-9-yl)cyclohexanecarboxamide], the figure is above 1000 nM.
For `CC(C)Nc1ncc2nc(Nc3c(F)cc(Cl)cc3F)n([C@H]3CC[C@@H](C(N)=O)CC3)c2n1` [Example 124, (1s,4s)-4-(8-(4-chloro-2,6-difluorophenylamino)-2-(isopropylamino)-9H-purin-9-yl)cyclohexanecarboxamide], the IC50 is above 1000 nM.
Same read-out and setting: under `CC[C@@H](CO)Nc1ncc2nc(Nc3ccc(F)c(F)c3F)n([C@H]3CC[C@@H](C(N)=O)CC3)c2n1` [Example 151, (1R,4s)-4-(2-((S)-1-hydroxybutan-2-ylamino)-8-(2,3,4-trifluorophenylamino)-9H-purin-9-yl)cyclohexanecarboxamide] stands above 1000 nM; under `NC(=O)[C@H]1CC[C@@H](n2c(Nc3c(Cl)cc(Cl)cc3Cl)nc3cnc(N[C@@H]4CCOC[C@H]4F)nc32)CC1` [Example 274, (1S,4s)-4-(2-((3S,4R)-3-fluorotetrahydro-2H-pyran-4-ylamino)-8-(2,4,6-trichlorophenylamino)-9H-purin-9-yl)cyclohexanecarboxamide], below 250 nM; under `CC(C)(C)OC(=O)N1CC[C@H](Nc2ncc3nc(Nc4c(F)cc(Cl)cc4F)n([C@H]4CC[C@@H](C(N)=O)CC4)c3n2)[C@H](F)C1` [Example 155, (3R,4S)-tert-butyl 4-(9-((1s,4R)-4-carbamoylcyclohexyl)-8-(4-chloro-2,6-difluorophenylamino)-9H-purin-2-ylamino)-3-fluoropiperidine-1-carboxylate], above 1000 nM.
On the same count and under the same terms, under `NC(=O)[C@H]1CC[C@@H](n2c(Nc3c(F)cc(F)cc3F)nc3cnc(N[C@H]4CC[C@H](O)C4)nc32)CC1` [Example 331, (1R,4s)-4-(2-((1S,3S)-3-hydroxycyclopentylamino)-8-(2,4,6-trifluorophenylamino)-9H-purin-9-yl)cyclohexanecarboxamide] stands above 1000 nM; under `CC[C@@H](CO)Nc1ncc2nc(Nc3c(F)cccc3Cl)n([C@H]3CC[C@@H](C(N)=O)CC3)c2n1` [Example 144, (1R,4s)-4-(8-(2-chloro-6-fluorophenylamino)-2-((S)-1-hydroxybutan-2-ylamino)-9H-purin-9-yl)cyclohexanecarboxamide], above 1000 nM; under `NC(=O)[C@H]1CC[C@@H](n2c(Nc3ccc(F)c(F)c3F)nc3cnc(N[C@@H]4CC[C@@H](O)C4)nc32)CC1` [Example 220, (1S,4s)-4-(2-((1R,3R)-3-hydroxycyclopentylamino)-8-(2,3,4-trifluorophenylamino)-9H-purin-9-yl)cyclohexanecarboxamide], above 1000 nM.
Still for that read-out and setting: under `NC(=O)[C@H]1CC[C@@H](n2c(Nc3c(F)cc(Cl)cc3Cl)nc3cnc(NCC4(CO)CC4)nc32)CC1` [Example 206, (1s,4s)-4-(8-(2,4-dichloro-6-fluorophenylamino)-2-((1-(hydroxymethyl)cyclopropyl)methylami-no)-9H-purin-9-yl)cyclohexanecarboxamide] stands above 1000 nM.

The test is the same for the next values; noted with them: Homo sapiens; Lox-IMVI anti-proliferative assay, IC50 activity level; read-out: Activity.
Take `NC(=O)[C@H]1CC[C@@H](n2c(Nc3c(F)cc(Cl)cc3Cl)nc3cnc(NC4CCCOCC4)nc32)CC1` (stereo partly drawn) [Example 537, (1s,4s)-4-(8-(2,4-dichloro-6-fluorophenylamino)-2-(oxepan-4-ylamino)-9H-purin-9-yl)cyclohexanecarboxamide]: the IC50 was below 250 nM.
On the same count and under the same terms, under `CC[C@@H](CO)Nc1ncc2nc(Nc3c(F)cc(C#N)cc3F)n([C@H]3CC[C@@H](C(N)=O)CC3)c2n1` [Example 402, (1R,4s)-4-(8-(4-cyano-2,6-difluorophenylamino)-2-((S)-1-hydroxybutan-2-ylamino)-9H-purin-9-yl)cyclohexanecarboxamide] stands above 1000 nM; under `NC(=O)[C@H]1CC[C@@H](n2c(Nc3c(F)cc(Cl)cc3Cl)nc3cnc(N[C@H]4CCCC[C@H]4O)nc32)CC1` [Example 513, (1R,4s)-4-(8-(2,4-dichloro-6-fluorophenylamino)-2-((1S,2R)-2-hydroxycyclohexylamino)-9H-purin-9-yl)cyclohexanecarboxamide], above 1000 nM.
The same measure, in the same setting: under `C[C@]1(C(N)=O)CC[C@H](n2c(Nc3c(Cl)cc(C(F)(F)F)cc3Cl)nc3cnc(NC4CCCC4)nc32)CC1` [Example 488, (1r,4r)-4-(2-(cyclopentylamino)-8-(2,6-dichloro-4-(trifluoromethyl)phenylamino)-9H-purin-9-yl)-1-methylcyclohexanecarboxamide] stands above 1000 nM; under `C[C@@H]1COCC[C@@H]1Nc1ncc2nc(Nc3c(F)cc(F)cc3F)n([C@H]3CC[C@@H](C(N)=O)CC3)c2n1` [Example 511, (1R,4s)-4-(2-((3S,4S)-3-methyltetrahydro-2H-pyran-4-ylamino)-8-(2,4,6-trifluorophenylamino)-9H-purin-9-yl)cyclohexanecarboxamide], 500 to 1000 nM.
Same read-out and setting: under `NC(=O)[C@H]1CC[C@@H](n2c(Nc3c(Cl)cc(Cl)cc3Cl)nc3cnc(NC4CCCOCC4)nc32)CC1` (stereo partly drawn) [Example 539, (1s,4s)-4-(2-(oxepan-4-ylamino)-8-(2,4,6-trichlorophenylamino)-9H-purin-9-yl)cyclohexanecarboxamide] stands below 250 nM; under `N#Cc1cc(Cl)c(Nc2nc3cnc(N[C@@H]4CCOC4)nc3n2[C@H]2CC[C@@H](C(N)=O)CC2)c(Cl)c1` [Example 518, (1S,4s)-4-(8-(2,6-dichloro-4-cyanophenylamino)-2-((R)-tetrahydrofuran-3-ylamino)-9H-purin-9-yl)cyclohexanecarboxamide], 250 to 500 nM; under `N#Cc1cc(Cl)c(Nc2nc3cnc(N[C@H]4CCCC[C@H](O)C4)nc3n2[C@H]2CC[C@@H](C(N)=O)CC2)c(Cl)c1` [Example 449, (1R,4s)-4-(8-(2,6-dichloro-4-cyanophenylamino)-2-((1S,3S)-3-hydroxycycloheptylamino)-9H-purin-9-yl)cyclohexanecarboxamide], above 1000 nM.

The test is the same for the next values; noted with them: Homo sapiens; Lox-IMVI melanoma cell line, anti-proliferative assay; read-out: Activity (IC50 activity level).
Turning to `CC(C)N1CCC[C@@H](Nc2ncc3nc(Nc4c(F)cc(Cl)cc4F)n([C@H]4CC[C@@H](C(N)=O)CC4)c3n2)C1` [Example 740, (1S,4s)-4-(8-(4-chloro-2,6-difluorophenylamino)-2-((R)-1-isopropylpiperidin-3-ylamino)-9H-purin-9-yl)cyclohexanecarboxamide], the IC50 was above 1000 nM.
Still for that read-out and setting: as for `N#Cc1cc(F)c(Nc2nc3cnc(N[C@@H]4CCCN(Cc5ccccc5)C4)nc3n2[C@H]2CC[C@@H](C(N)=O)CC2)c(F)c1` [Example 755, (1S,4s)-4-(2-((R)-1-benzylpiperidin-3-ylamino)-8-(4-cyano-2,6-difluorophenylamino)-9H-purin-9-yl)cyclohexanecarboxamide], the figure is above 1000 nM.
The same measure, in the same setting: under `CC(C)OC(=O)N1CCC[C@@H](Nc2ncc3nc(Nc4c(F)cc(Cl)cc4Cl)n([C@H]4CC[C@@H](C(N)=O)CC4)c3n2)C1` [Example 774, (R)-isopropyl 3-(9-((1s,4S)-4-carbamoylcyclohexyl)-8-(2,4-dichloro-6-fluorophenylamino)-9H-purin-2-ylamino)piperidine-1-carboxylate] stands 250 to 500 nM; under `CC(C)OC(=O)N1CCC[C@@H](Nc2ncc3nc(Nc4c(Cl)cc(C#N)cc4Cl)n([C@H]4CC[C@@H](C(N)=O)CC4)c3n2)C1` [Example 769, (R)-isopropyl 3-(9-((1s,4S)-4-carbamoylcyclohexyl)-8-(2,6-dichloro-4-cyanophenylamino)-9H-purin-2-ylamino)piperidine-1-carboxylate], 500 to 1000 nM.
On the same count and under the same terms, as for `C[C@]1(C(N)=O)CC[C@@H](n2c(Nc3c(Cl)cc(F)cc3Cl)nc3cnc(N[C@H]4CCC[C@H](O)C4)nc32)CC1` [Example 613, (1R,4s)-4-(8-(2,6-dichloro-4-fluorophenylamino)-2-((1S,3S)-3-hydroxycyclohexylamino)-9H-purin-9-yl)-1-methylcyclohexanecarboxamide], the figure is below 250 nM; as for `Cc1ccc(S(=O)(=O)N2CCC[C@@H](Nc3ncc4nc(Nc5c(F)cc(F)cc5Cl)n([C@H]5CC[C@@H](C(N)=O)CC5)c4n3)C2)cc1` [Example 787, (1S,4s)-4-(8-(2-chloro-4,6-difluorophenylamino)-2-((R)-1-tosylpiperidin-3-ylamino)-9H-purin-9-yl)cyclohexanecarboxamide], above 1000 nM; as for `N#Cc1cc(F)c(Nc2nc3cnc(NC[C@@H]4CCCC[C@@H]4O)nc3n2[C@H]2CC[C@@H](C(N)=O)CC2)c(Cl)c1` [Example 658, (1R,4s)-4-(8-(2-chloro-4-cyano-6-fluorophenylamino)-2-(((1S,2S)-2-hydroxycyclohexyl)methylamino)-9H-purin-9-yl)cyclohexanecarboxamide], above 1000 nM.
